Experimental data reported in US20160083357A1, “NOVEL TETRAZOLONE DERIVATIVES” (Hoffmann-La Roche Inc., priority 2013, published 2016).
Read-outs that look alike come from different tables or passages of the source.

How the values were obtained:
[1] = target: T1, human CB2 receptors (Homo sapiens, UniProt P34972); experiment: cAMP assay, human CB2; type: cell-based
T1 construct: expressed in transfected cells; host or cells: CHO cells
Method: (§1) CHO cells expressing human CB1 or CB2 receptors are seeded 17-24 hours prior to the experiment 50.000 cells per well in a black 96 well plate with flat clear bottom (Corning Costar #3904) in DMEM (Invitrogen No. 31331), lx HT supplement, with 10% fetal calf serum and incubated at 5% CO2 and 37° C. in a humidified incubator. The growth medium was exchanged with Krebs Ringer Bicarbonate buffer with 1 mM IBMX and incubated at 30° C. for 30 min. Compounds were added to a final assay volume of 100 μl and incubated for 30 min at 30° C. Using the cAMP-Nano-TRF detection kit the assay (Roche Diagnostics) was stopped by the addition of 50 μl lysis reagent (Tris, NaCl, 1.5% Triton X100, 2.5% NP40, 10% NaN3) and 50 μl detection solutions (20 μM mAb Alexa700-cAMP 1:1, and 48 μM Ruthenium-2-AHA-cAMP) and shaken for 2 h at room temperature. The time-resolved energy transfer is measured by a TRF reader (Evotec Technologies GmbH), equipped with a ND:YAG laser as excitation source. The plate is measured twice with the excitation at 355 nm and at the emission with a delay of 100 ns and a gate of 100 ns, total exposure time 10 s at 730 (bandwidth 30 nm) or 645 nm (bandwidth 75 nm), respectively. The FRET signal is calculated as follows: FRET=T730-Alexa730-P(T645-B645) with P=Ru730-B730/Ru645-B645, where T730 is the test well measured at 730 nM, T645 is the test well measured at 645 nm, B730 and B645 are the buffer controls at 730 nm and 645 nm, respectively. cAMP content is determined from the function of a standard curve spanning from 10 μM to 0.13 nM cAMP.
(§2) EC50 values were determined using Activity Base analysis (ID Business Solution, Limited). The EC50 values for a wide range of cannabinoid agonists generated from this assay were in agreement with the values published in the scientific literature.

[2] = target: T2, human CB1 receptors (Homo sapiens, UniProt P21554); experiment: cAMP assay, human CB1; type: cell-based
T2 construct: expressed in transfected cells; host or cells: CHO cells
T2 sequence (P21554 whole entry): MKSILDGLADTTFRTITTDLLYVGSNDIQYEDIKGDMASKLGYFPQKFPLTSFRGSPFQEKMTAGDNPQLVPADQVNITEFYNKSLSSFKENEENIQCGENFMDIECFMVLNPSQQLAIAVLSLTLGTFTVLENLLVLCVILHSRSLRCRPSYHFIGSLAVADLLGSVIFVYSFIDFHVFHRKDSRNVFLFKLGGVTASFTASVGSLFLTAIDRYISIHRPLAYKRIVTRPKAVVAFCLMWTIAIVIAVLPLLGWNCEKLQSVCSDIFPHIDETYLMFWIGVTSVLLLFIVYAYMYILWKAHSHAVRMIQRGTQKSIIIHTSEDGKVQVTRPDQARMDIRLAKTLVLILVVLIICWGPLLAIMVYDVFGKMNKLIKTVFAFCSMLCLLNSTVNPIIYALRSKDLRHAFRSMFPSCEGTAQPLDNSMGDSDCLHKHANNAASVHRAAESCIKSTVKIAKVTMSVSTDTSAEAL
Method: as §1, §2

[3] = functional cAMP assay, CHO cells expressing human CB2, read-out: Ec50: CB2 - hu cAMP
[4] = functional cAMP assay, CHO cells expressing human CB1, read-out: Ec50: CB1 - hu cAMP

T1 sequence (P34972 whole entry): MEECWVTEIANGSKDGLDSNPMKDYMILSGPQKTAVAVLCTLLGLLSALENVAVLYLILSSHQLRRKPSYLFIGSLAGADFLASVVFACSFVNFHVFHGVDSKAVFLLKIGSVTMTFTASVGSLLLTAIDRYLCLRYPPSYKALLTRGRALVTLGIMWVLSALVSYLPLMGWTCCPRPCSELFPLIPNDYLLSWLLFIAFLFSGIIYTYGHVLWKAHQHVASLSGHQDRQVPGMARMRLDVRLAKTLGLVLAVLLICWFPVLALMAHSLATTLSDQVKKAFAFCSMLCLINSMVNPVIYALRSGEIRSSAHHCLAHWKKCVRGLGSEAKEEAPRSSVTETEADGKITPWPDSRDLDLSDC

Row | SMILES | EC50 [1, 3] | EC50 [2, 4] | EC50 [1] | EC50 [2]
1 | N#CCCN(C(=O)n1nnn(-c2cccc(F)c2)c1=O)C1CC1 [Example 31, 4-(3-Fluoro-phenyl)-5-oxo-4,5-dihydro-tetrazole-1-carboxylic acid (2-cyano-ethyl)-cyclopropyl-amide] | 166 nM | > 10000 nM |  | 
2 | CN(C(=O)n1nnn(-c2cccc(F)c2)c1=O)c1ccccn1 [Example 32, 4-(3-Fluoro-phenyl)-5-oxo-4,5-dihydro-tetrazole-1-carboxylic acid methyl-pyridin-2-yl-amide] | 152 nM | > 10000 nM |  | 
3 | CN(C(=O)n1nnn(-c2cccc(F)c2)c1=O)c1cccnc1 [Example 33, 4-(3-Fluoro-phenyl)-5-oxo-4,5-dihydro-tetrazole-1-carboxylic acid methyl-pyridin-3-yl-amide] | 25 nM | > 10000 nM |  | 
4 | COCC1CCCCN1C(=O)n1nnn(-c2cccc(F)c2)c1=O (centres unmarked) [Example 34, 1-(3-Fluoro-phenyl)-4-(2-methoxymethyl-piperidine-1-carbonyl)-1,4-dihydro-tetrazol-5-one] | 19 nM | > 10000 nM |  | 
5 | CCC(=O)N1CCN(C(=O)n2nnn(-c3cccc(F)c3)c2=O)CC1 [Example 39, 1-(3-Fluoro-phenyl)-4-(4-propionyl-piperazine-1-carbonyl)-1,4-dihydro-tetrazol-5-one] | 497 nM | > 10000 nM |  | 
6 | O=C(N1CCC(c2ccccc2)C1)n1nnn(-c2cccc(F)c2)c1=O (centres unmarked) [Example 41, 1-(3-Fluoro-phenyl)-4-(3-phenyl-pyrrolidine-1-carbonyl)-1,4-dihydro-tetrazol-5-one] | 3.2 nM | > 10000 nM |  | 
7 | CC(=O)N[C@H]1CCN(C(=O)n2nnn(-c3cccc(F)c3)c2=O)C1 [Example 42, N—{(S)-1-[4-(3-Fluoro-phenyl)-5-oxo-4,5-dihydro-tetrazole-1-carbonyl]-pyrrolidin-3-yl}-acetamide] | 91.1 nM | > 10000 nM |  | 
8 | CC1(C)CCN(C(=O)n2nnn(-c3cccc(F)c3)c2=O)C1 [Example 47, 1-(3,3-Dimethyl-pyrrolidine-1-carbonyl)-4-(3-fluoro-phenyl)-1,4-dihydro-tetrazol-5-one] | 2.7 nM | > 10000 nM |  | 
9 | CC1CCCN1C(=O)n1nnn(-c2cccc(F)c2)c1=O (centres unmarked) [Example 48, 1-(3-Fluoro-phenyl)-4-(2-methyl-pyrrolidine-1-carbonyl)-1,4-dihydro-tetrazol-5-one] | 6.7 nM | > 10000 nM |  | 
10 | N#C[C@@H]1CCCN1C(=O)n1nnn(-c2cccc(F)c2)c1=O [Example 51, (S)-1-[4-(3-Fluoro-phenyl)-5-oxo-4,5-dihydro-tetrazole-1-carbonyl]-pyrrolidine-2-carbonitrile] | 154 nM | > 10000 nM |  | 
11 | N#C[C@H]1CCCN1C(=O)n1nnn(-c2cccc(F)c2)c1=O [Example 52, (R)-1-[4-(3-Fluoro-phenyl)-5-oxo-4,5-dihydro-tetrazole-1-carbonyl]-pyrrolidine-2-carbonitrile] | 129 nM | > 10000 nM |  | 
12 | CCN(Cc1ccccc1)C(=O)n1nnn(-c2ccc(Cl)nc2)c1=O [Example 53, 4-(6-Chloro-pyridin-3-yl)-5-oxo-4,5-dihydro-tetrazole-1-carboxylic acid benzyl-ethyl-amide] |  |  | 1 nM | > 10000 nM
13 | CCCN(CCOC)C(=O)n1nnn(-c2cccc(F)c2)c1=O [Example 56, 4-(3-Fluoro-phenyl)-5-oxo-4,5-dihydro-tetrazole-1-carboxylic acid (2-methoxy-ethyl)-propyl-amide] |  |  | 17 nM | > 10000 nM
14 | C[C@@H]1CN(C(=O)n2nnn(-c3cccc(F)c3)c2=O)C[C@H](C)O1 [Example 59, 1-((2S,6R)-2,6-Dimethyl-morpholine-4-carbonyl)-4-(3-fluoro-phenyl)-1,4-dihydro-tetrazol-5-one] | 988 nM | > 10000 nM |  | 

Continued, in another order:

Row | EC50 [1, 3] | EC50 [2, 4] | SMILES | EC50 [1] | EC50 [2]
15 | 161 nM | > 10000 nM | CN(C(=O)n1nnn(C2CC2)c1=O)c1cccnc1 [Example 35, 4-Cyclopropyl-5-oxo-4,5-dihydro-tetrazole-1-carboxylic acid methyl-pyridin-3-yl-amide] |  | 
16 | 874 nM | > 10000 nM | CCCn1nnn(C(=O)N(C)c2cccnc2)c1=O [Example 36, 5-Oxo-4-propyl-4,5-dihydro-tetrazole-1-carboxylic acid methyl-pyridin-3-yl-amide] |  | 
17 | 407 nM | > 10000 nM | CC(C)Cn1nnn(C(=O)N(C)c2cccnc2)c1=O [Example 37, 4-Isobutyl-5-oxo-4,5-dihydro-tetrazole-1-carboxylic acid methyl-pyridin-3-yl-amide] |  | 
18 | 92 nM | > 10000 nM | CC(=O)N1CCN(C(=O)n2nnn(-c3cccc(F)c3)c2=O)CC1 [Example 38, 1-(4-Acetyl-piperazine-1-carbonyl)-4-(3-fluoro-phenyl)-1,4-dihydro-tetrazol-5-one] |  | 
19 | 52.8 nM | > 10000 nM | CCN(CC)C(=O)N1CCN(C(=O)n2nnn(-c3cccc(F)c3)c2=O)CC1 [Example 40, 4-[4-(3-Fluoro-phenyl)-5-oxo-4,5-dihydro-tetrazole-1-carbonyl]-piperazine-1-carboxylic acid diethylamide] |  | 
20 | 25.8 nM | > 10000 nM | CC(=O)N[C@@H]1CCN(C(=O)n2nnn(-c3cccc(F)c3)c2=O)C1 [Example 43, N—{(R)-1-[4-(3-Fluoro-phenyl)-5-oxo-4,5-dihydro-tetrazole-1-carbonyl]-pyrrolidin-3-yl}-acetamide] |  | 
21 | 13.8 nM | > 10000 nM | CCN(C(C)=O)C1CCN(C(=O)n2nnn(-c3cccc(F)c3)c2=O)C1 (centres unmarked) [Example 44, N-Ethyl-N-{1-[4-(3-fluoro-phenyl)-5-oxo-4,5-dihydro-tetrazole-1-carbonyl]-pyrrolidin-3-yl}-acetamide] |  | 
22 | 797 nM | > 10000 nM | O=C(N1CCC(F)(F)C1)n1nnn(-c2cccc(F)c2)c1=O [Example 45, 1-(3,3-Difluoro-pyrrolidine-1-carbonyl)-4-(3-fluoro-phenyl)-1,4-dihydro-tetrazol-5-one] |  | 
23 | 90.2 nM | > 10000 nM | CC1(C)CCCN1C(=O)n1nnn(-c2cccc(F)c2)c1=O [Example 46, 1-(2,2-Dimethyl-pyrrolidine-1-carbonyl)-4-(3-fluoro-phenyl)-1,4-dihydro-tetrazol-5-one] |  | 
24 | 14.3 nM | > 10000 nM | CC(=O)N(C)C1CCN(C(=O)n2nnn(-c3cccc(F)c3)c2=O)C1 (centres unmarked) [Example 49, N-{1-[4-(3-Fluoro-phenyl)-5-oxo-4,5-dihydro-tetrazole-1-carbonyl]-pyrrolidin-3-yl}-N-methyl-acetamide] |  | 
25 | 567 nM | > 10000 nM | CCOC(=O)N1CCN(C(=O)n2nnn(-c3cccc(F)c3)c2=O)CC1 [Example 50, 4-[4-(3-Fluoro-phenyl)-5-oxo-4,5-dihydro-tetrazole-1-carbonyl]-piperazine-1-carboxylic acid ethyl ester] |  | 
26 | 1.3 nM | > 10000 nM | COCCN(C)C(=O)n1nnn(-c2cccc(F)c2)c1=O [Example 54, 4-(3-Fluoro-phenyl)-5-oxo-4,5-dihydro-tetrazole-1-carboxylic acid (2-methoxy-ethyl)-methyl-amide] |  | 
27 | 4.1 nM | > 10000 nM | COCCN(C(=O)n1nnn(-c2cccc(F)c2)c1=O)C(C)C [Example 55, 4-(3-Fluoro-phenyl)-5-oxo-4,5-dihydro-tetrazole-1-carboxylic acid isopropyl-(2-methoxy-ethyl)-amide] |  | 
28 | 8.5 nM | > 10000 nM | COCCN(CCOC)C(=O)n1nnn(-c2cccc(F)c2)c1=O [Example 57, 4-(3-Fluoro-phenyl)-5-oxo-4,5-dihydro-tetrazole-1-carboxylic acid bis-(2-methoxy-ethyl)-amide] |  | 
29 | 45.4 nM | > 10000 nM | CC1CN(C(=O)n2nnn(-c3cccc(F)c3)c2=O)CC(C)O1 (centres unmarked) [Example 58, 1-(2,6-Dimethyl-morpholine-4-carbonyl)-4-(3-fluoro-phenyl)-1,4-dihydro-tetrazol-5-one] |  | 
30 | 1.3 nM | > 10000 nM | COCC1CCN(C(=O)n2nnn(-c3cccc(F)c3)c2=O)CC1 [Example 60, 1-(3-Fluoro-phenyl)-4-(4-methoxymethyl-piperidine-1-carbonyl)-1,4-dihydro-tetrazol-5-one] |  | 
31 | 6.8 nM | > 10000 nM | N#CC1CCN(C(=O)n2nnn(-c3cccc(F)c3)c2=O)CC1 [Example 61, 1-[4-(3-Fluoro-phenyl)-5-oxo-4,5-dihydro-tetrazole-1-carbonyl]-piperidine-4-carbonitrile] |  | 
